Test results reported in patent US20220330549A1, “USE OF N-BENZYLBENZAMIDE-BASED COMPOUND AS HERBICIDE” (Northwest A&F University, priority 2020, published 2022).

What was measured:
Assay type in all cases: in vivo
Broadleaf weed = assay: Post-emergence herbicidal activity test in a paddy field; design: key: level scale; higher level = more weed left vs blank control; settings: 150 g a.i./ha (penoxsulam control 250 g(a.i.)/h)
How it was run: (§1)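 Efficacy was visually estimated 15 and 30 days after spraying, grading weed coverage relative to an untreated neighbouring plot (level 2 = 0 to 2.5%, level 9 = 67.6 to 100%). Treatments were 150 g(a.i.)/ha from 10% emulsifiable concentrates applied at the 4-5 leaf rice stage, four repeats of 50 m^2 each.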

Gramineae = assay: as above; design: key: level scale; higher level = more weed left vs blank control; settings: 150 g a.i./ha (penoxsulam control 250 g(a.i.)/h)
How it was run: as §1

Cyperaceae = assay: as above; design: key: level scale; higher level = more weed left vs blank control; settings: 150 g a.i./ha (penoxsulam control 250 g(a.i.)/h)
How it was run: as §1

green bristlegrass [1] = assay: Field test for weed control in a corn field; settings: 150 g a.i./ha, after treatment
How it was run: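 Post-emergence weed control was tested in a corn field following GB/T 17980.42-2000. When the corn had 2 leaves to 5 leaves after sowing, 10% emulsifiable concentrates diluted in water were sprayed at 150 g(a.i.)/ha on 20 m^2 plots, four replicates per treatment. Effects on green bristlegrass were scored on a 1-9 damage scale relative to the blank control area.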

Digitaria sanguinalis [2] = assay: Field test for weed control in a corn field; settings: 150 g a.i./ha, after treatment
How it was run: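 Field trial in a corn field following GB/T 17980.42-2000. Test compounds were formulated as 10% emulsifiable concentrates, diluted in water and sprayed post-emergence at 150 g(a.i.)/ha when corn had 2 to 5 leaves, with 4 replicates on 20 m^2 plots. Control of Digitaria sanguinalis was scored on a 1-9 scale based on weed damage relative to the untreated blank area.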

nutgrass flatsedge = assay: Field test for weed control in a corn field; settings: 150 g a.i./ha, after treatment
How it was run: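 A corn field efficacy trial following GB/T 17980.42-2000 assessed post-emergence control of nutgrass flatsedge. Test compounds were formulated as 10% emulsifiable concentrates, diluted in water, and sprayed at 150 g(a.i.)/ha when the corn had 2 to 5 leaves. Each treatment had 4 replicates on 20 m^2 plots. Herbicidal activity was graded on a 1-9 scale by damage symptoms and severity.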

Acalypha australis = assay: Field test for weed control in a corn field; settings: 150 g a.i./ha, after treatment
How it was run: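 Post-emergence field trial in a corn field following GB/T 17980.42-2000. Test compounds were formulated as 10% emulsifiable concentrates, diluted in water, and sprayed at 150 g(a.i.)/ha when corn had 2 to 5 leaves, with 4 replicates on 20 m^2 plots. Mesotrione 25% oil dispersion served as the control agent. Weed control was scored on a 1-9 scale.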

Amaranthus retroflexus [3] = assay: Field test for weed control in a corn field; settings: 150 g a.i./ha, 30 days after treatment
How it was run: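 Field efficacy trial in a corn field following GB/T 17980.42-2000. Test compounds were formulated as 10% emulsifiable concentrates, diluted in water and sprayed post-emergence when corn had 2 to 5 leaves. Each treatment covered 20 m^2 with 4 replicates. A 25% mesotrione oil dispersion served as control. Damage to Amaranthus retroflexus was rated on a 1-9 scale against untreated blank plots.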

Chenopodium album = assay: Field test for weed control in a corn field; settings: 150 g a.i./ha, after treatment
How it was run: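 A corn-field efficacy trial following GB/T 17980.42-2000 tested post-emergence control of Chenopodium album. Test compounds formulated as 10% emulsifiable concentrates were diluted in water and sprayed at 150 g(a.i.)/ha when the corn had 2 leaves to 5 leaves, on 20 m^2 plots with 4 replicates. Herbicidal activity was rated on a 1-9 scale by damage symptoms and severity.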

Convolvulus arvensis = assay: Field test for weed control in a corn field; settings: 150 g a.i./ha, after treatment
How it was run: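 Field trial of weed control against Convolvulus arvensis in corn, run following GB/T 17980.42-2000. Test agents were formulated as 10% emulsifiable concentrates and sprayed in water at 150 g(a.i.)/ha when corn plants had 2 to 5 leaves. Each treatment was replicated 4 times on 20 m^2 plots, and 25% mesotrione oil dispersion served as the control agent.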

Solanum nigrum = assay: Field test for weed control in a corn field; settings: 150 g a.i./ha, 30 days after treatment
How it was run: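 Post-emergence weed control was tested in a corn field following GB/T 17980.42-2000. Compounds were made into 10% emulsifiable concentrates, diluted in water and sprayed at 150 g(a.i.)/ha when corn had 2 to 5 leaves after sowing, in 20 m^2 plots with 4 replicates. Effects on Solanum nigrum were graded on a 1-9 scale relative to the blank control area.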

Portulaca oleracea = assay: Field test for weed control in a corn field; settings: 150 g a.i./ha, after treatment
How it was run: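 Field efficacy trial in corn following GB/T 17980.42-2000. Test compounds were prepared as 10% emulsifiable concentrates, diluted in water, and sprayed at 150 g(a.i.)/ha when corn had 2 to 5 leaves after sowing. Plots were 20 m^2 with 4 replicates per treatment. Herbicidal activity was scored on a 1-9 scale from weed damage symptoms and severity.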

goosegrass = assay: Field test for weed control in a corn field; settings: 150 g a.i./ha, after treatment
How it was run: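 Weed control efficacy against goosegrass was tested in a corn field following GB/T 17980.42-2000. Compounds formulated as 10% emulsifiable concentrates were diluted in water and sprayed post-emergence at 150 g(a.i.)/ha when corn had 2 to 5 leaves, with 4 replicates of 20 m^2 plots. Herbicidal activity was rated on a 1-9 scale by damage symptoms and severity.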

Barnyard grass [4] = assay: Field test for weed control in a corn field; settings: 150 g a.i./ha, 30 days after treatment
How it was run: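 Corn-field efficacy trial following GB/T 17980.42-2000. Test compounds were formulated as 10% emulsifiable concentrates, diluted in water and sprayed post-emergence at 150 g(a.i.)/ha when corn had 2 to 5 leaves. Each treatment was replicated 4 times on 20 m^2 plots. Barnyard grass control was rated on a 1-9 damage scale.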

green bristlegrass [5] = assay: Herbicidal activity test for indoor pre-emergence soil treatment; design: key: level 1-9; higher = more weed remaining vs blank control; settings: 150 g a.i./ha, visual inspection 21 days after treatment
How it was run: (§2)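 Pre-emergence soil spray per NY/T 1155.3-2006: weed seeds sown in moistened neutral sandy loam (organic content ≤2%), covered with 0.5–2.0 cm soil, then sprayed 24 h later with a water-diluted 10% emulsifiable concentrate at 150 g(a.i.)/ha. Visual rating after 21 days on a 1–9 scale.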

Piemarker [6] = assay: as above; design: key: level 1-9; higher = more weed remaining vs blank control; settings: 150 g a.i./ha, visual inspection 21 days after treatment
How it was run: as §2

Barnyard grass [7] = assay: as above; design: key: level 1-9; higher = more weed remaining vs blank control; settings: 150 g a.i./ha, visual inspection 21 days after treatment
How it was run: as §2

Humulus scandens [8] = assay: as above; settings: 150 g a.i./ha, visual inspection 21 days after treatment
How it was run: as §2

green bristlegrass [9] = assay: Herbicidal activity test for indoor post-emergence spraying on stems and leaves; design: key: grade level by weed remaining vs blank control, e.g. 5 = 10.1-15%; settings: 150 g a.i./ha, visual inspection 21 days after treatment
How it was run: (§3)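 Run per NY/T 1155.4-2006: weeds sown, grown in greenhouse, then sprayed post-emergence on stems and leaves. Effect scored visually 21 days after treatment on a graded level scale relative to weed in the blank control area.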

Digitaria sanguinalis [10] = assay: as above; design: key: grade level by weed remaining vs blank control, e.g. 5 = 10.1-15%; settings: 150 g a.i./ha, visual inspection 21 days after treatment
How it was run: as §3

Amaranthus retroflexus [11] = assay: as above; design: key: grade level by weed remaining vs blank control, e.g. 5 = 10.1-15%; settings: 150 g a.i./ha, visual inspection 21 days after treatment
How it was run: as §3

Humulus scandens [12] = assay: as above; design: key: grade level by weed remaining vs blank control, e.g. 5 = 10.1-15%; settings: 150 g a.i./ha, visual inspection 21 days after treatment
How it was run: as §3

Piemarker [13] = assay: as above; design: key: grade level by weed remaining vs blank control, e.g. 5 = 10.1-15%; settings: 150 g a.i./ha, visual inspection 21 days after treatment
How it was run: as §3

Barnyard grass [14] = assay: as above; design: key: grade level by weed remaining vs blank control, e.g. 5 = 10.1-15%; settings: 150 g a.i./ha, visual inspection 21 days after treatment
How it was run: as §3

Digitaria sanguinalis [15] = assay: Herbicidal activity test for indoor pre-emergence soil treatment; design: key: 1-9 levels; higher = more weed remaining vs blank control; settings: 150 g a.i./ha, visual inspection 21 days after treatment
How it was run: as §2

Amaranthus retroflexus [16] = assay: as above; design: key: 1-9 levels; higher = more weed remaining vs blank control; settings: 150 g a.i./ha, visual inspection 21 days after treatment
How it was run: as §2

COc1cccc(CNC(=O)c2cccnc2OC)c1 [Compound A87]
Herbicidal activity 15 days after treatment Broadleaf weed (Broadleaf weed; 15 days after treatment): 1 | Herbicidal activity 30 days after treatment Broadleaf weed (Broadleaf weed; 30 days after treatment): 1 | Herbicidal activity 15 days after treatment Gramineae (Gramineae; 15 days after treatment): 2 (equivalent to 0 to 2.5% of the weed in the blank control area) | Herbicidal activity 30 days after treatment Gramineae (Gramineae; 30 days after treatment): 1 | Herbicidal activity 15 days after treatment Cyperaceae (Cyperaceae; 15 days after treatment): 1 | Herbicidal activity 30 days after treatment Cyperaceae (Cyperaceae; 30 days after treatment): 1 | Post-emergence weed control effect, Green bristlegrass (green bristlegrass [1]): 1 | Post-emergence weed control effect, Digitaria sanguinalis (Digitaria sanguinalis [2]): 2 (equivalent to 0 to 2.5% of the weed in the blank control area) | Post-emergence weed control effect, Nutgrass flatsedge (nutgrass flatsedge): 2 (equivalent to 0 to 2.5% of the weed in the blank control area) | Post-emergence weed control effect, Acalypha australis (Acalypha australis): 2 (equivalent to 0 to 2.5% of the weed in the blank control area) | Post-emergence weed control effect, Amaranthus retroflexus (Amaranthus retroflexus [3]): 1 | Post-emergence weed control effect, Chenopodium album (Chenopodium album): 1 | Post-emergence weed control effect, Convolvulus arvensis (Convolvulus arvensis): 1 | Post-emergence weed control effect, Solanum nigrum (Solanum nigrum): 2 (equivalent to 0 to 2.5% of the weed in the blank control area) | Post-emergence weed control effect, Portulaca oleracea (Portulaca oleracea): 1 | Post-emergence weed control effect, Goose grass (goosegrass): 2 (equivalent to 0 to 2.5% of the weed in the blank control area) | Post-emergence weed control effect, Barnyard grass (Barnyard grass [4]): 1 | Herbicidal Activity Green bristlegrass (green bristlegrass [5]): 1 | Herbicidal Activity Piemarker (Piemarker [6]): 2 (equivalent to 0 to 2.5% of the weed in the blank control area) | Herbicidal Activity Barnyard grass (Barnyard grass [7]): 2 (equivalent to 0 to 2.5% of the weed in the blank control area) | Herbicidal Activity Humulus scandens (Humulus scandens [8]): 3 (equivalent to 2.6 to 5% of the weed in the blank control area) | Herbicidal Activity Green bristlegrass (green bristlegrass [9]): 1 | Herbicidal Activity Digitaria sanguinalis (Digitaria sanguinalis [10]): 1 | Herbicidal Activity Amaranthus retroflexus (Amaranthus retroflexus [11]): 1 | Herbicidal Activity Humulus scandens (Humulus scandens [12]): 1 | Herbicidal Activity Piemarker (Piemarker [13]): 1 | Herbicidal Activity Barnyard grass (Barnyard grass [14]): 2 (equivalent to 0 to 2.5% of the weed in the blank control area) | Herbicidal Activity Digitaria sanguinalis (Digitaria sanguinalis [15]): 2 (equivalent to 0 to 2.5% of the weed in the blank control area) | Herbicidal Activity Amaranthus retroflexus (Amaranthus retroflexus [16]): 2 (equivalent to 0 to 2.5% of the weed in the blank control area)
